Measured values as given in ChEMBL document CHEMBL1139540, “Replacement of Phe6, Phe7, and Phe11 of D-Trp8-somatostatin-14 with L-pyrazinylalanine. Predicted and observed effects on binding affinities at hSST2 and hSST4. An unexpected effect of the chirality of Trp8 on NMR spectra in methanol” (J Med Chem, 2005).
Bridge positions count the residues as written; N and C are the ends. Peptide text beside a SMILES is read from it.

Key:
[1] = molecular target: T1, Somatostatin receptor type 2 (Homo sapiens, UniProt P30874); test: Inhibition of human somatostatin receptor type 2 (n=6)
T1 sequence (P30874 whole entry): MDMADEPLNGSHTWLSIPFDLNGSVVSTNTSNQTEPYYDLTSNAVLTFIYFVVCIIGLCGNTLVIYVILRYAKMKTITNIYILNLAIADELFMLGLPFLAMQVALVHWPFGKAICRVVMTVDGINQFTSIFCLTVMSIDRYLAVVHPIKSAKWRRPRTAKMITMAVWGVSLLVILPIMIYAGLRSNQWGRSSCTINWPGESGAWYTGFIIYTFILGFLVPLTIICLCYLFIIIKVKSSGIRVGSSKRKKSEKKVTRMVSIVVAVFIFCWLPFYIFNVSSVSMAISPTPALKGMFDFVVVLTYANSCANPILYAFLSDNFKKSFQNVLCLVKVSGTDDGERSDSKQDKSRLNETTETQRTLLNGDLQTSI

[2] = molecular target: T1, Somatostatin receptor type 2; test: Inhibition of human somatostatin receptor type 2
[3] = molecular target: T2, Somatostatin receptor type 4 (Homo sapiens, UniProt P31391); test: Inhibition of human somatostatin receptor type 4
T2 sequence (P31391 whole entry): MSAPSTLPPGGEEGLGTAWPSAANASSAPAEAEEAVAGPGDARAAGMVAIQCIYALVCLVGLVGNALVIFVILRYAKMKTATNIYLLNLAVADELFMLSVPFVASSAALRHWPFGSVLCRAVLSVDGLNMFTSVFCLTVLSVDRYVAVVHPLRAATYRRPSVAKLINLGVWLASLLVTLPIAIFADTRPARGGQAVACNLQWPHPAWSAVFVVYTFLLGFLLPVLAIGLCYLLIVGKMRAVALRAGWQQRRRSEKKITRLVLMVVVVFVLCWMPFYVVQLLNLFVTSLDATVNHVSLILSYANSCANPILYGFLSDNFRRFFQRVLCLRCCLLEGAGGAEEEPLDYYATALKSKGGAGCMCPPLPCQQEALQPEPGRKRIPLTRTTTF

[4] = molecular target: T2, Somatostatin receptor type 4; test: Inhibition of human somatostatin receptor type 4 (n=5)

Structure (SMILES)	Ki [1]	Ki [2]	Ki [3]	Ki [4]
C[C@H](N)C(=O)NCC(=O)N[C@H]1CSSC[C@@H](C(=O)O)NC(=O)[C@H](CO)NC(=O)[C@H]([C@@H](C)O)NC(=O)[C@H](Cc2ccccc2)NC(=O)[C@H]([C@@H](C)O)NC(=O)[C@H](CCCCN)NC(=O)[C@@H](Cc2c[nH]c3ccccc23)NC(=O)[C@H](Cc2ccccc2)NC(=O)[C@H](Cc2cnccn2)NC(=O)[C@H](CC(N)=O)NC(=O)[C@H](CCCCN)NC1=O	7 nM	1 nM	60 nM	77 nM
C[C@H](N)C(=O)NCC(=O)N[C@H]1CSSC[C@@H](C(=O)O)NC(=O)[C@H](CO)NC(=O)[C@H]([C@@H](C)O)NC(=O)[C@H](Cc2ccccc2)NC(=O)[C@H]([C@@H](C)O)NC(=O)[C@H](CCCCN)NC(=O)[C@@H](Cc2c[nH]c3ccccc23)NC(=O)[C@H](Cc2cnccn2)NC(=O)[C@H](Cc2ccccc2)NC(=O)[C@H](CC(N)=O)NC(=O)[C@H](CCCCN)NC1=O		> 1000 nM	700 nM	
C[C@H](N)C(=O)NCC(=O)N[C@H]1CSSC[C@@H](C(=O)O)NC(=O)[C@H](CO)NC(=O)[C@H]([C@@H](C)O)NC(=O)[C@H](Cc2cnccn2)NC(=O)[C@H]([C@@H](C)O)NC(=O)[C@H](CCCCN)NC(=O)[C@@H](Cc2c[nH]c3ccccc23)NC(=O)[C@H](Cc2ccccc2)NC(=O)[C@H](Cc2ccccc2)NC(=O)[C@H](CC(N)=O)NC(=O)[C@H](CCCCN)NC1=O		1 nM	124 nM	
C[C@H](N)C(=O)NCC(=O)N[C@H]1CSSC[C@@H](C(N)=O)NC(=O)[C@H](CO)NC(=O)[C@H]([C@@H](C)O)NC(=O)[C@H](Cc2ccccc2)NC(=O)[C@H]([C@@H](C)O)NC(=O)[C@H](CCCCN)NC(=O)[C@H](Cc2c[nH]c3ccccc23)NC(=O)[C@H](Cc2ccccc2)NC(=O)[C@H](C)NC(=O)[C@H](CC(N)=O)NC(=O)[C@H](CCCCN)NC1=O (H-AGCKNAFWKTFTSC-NH2; disulfide 3-14)			80 nM	
C[C@H](N)C(=O)NCC(=O)N[C@H]1CSSC[C@@H](C(N)=O)NC(=O)[C@H](CO)NC(=O)[C@H]([C@@H](C)O)NC(=O)[C@H](C)NC(=O)[C@H]([C@@H](C)O)NC(=O)[C@H](CCCCN)NC(=O)[C@H](Cc2c[nH]c3ccccc23)NC(=O)[C@H](Cc2ccccc2)NC(=O)[C@H](Cc2ccccc2)NC(=O)[C@H](CC(N)=O)NC(=O)[C@H](CCCCN)NC1=O (H-AGCKNFFWKTATSC-NH2; disulfide 3-14)			< 1 nM	
